The target of one experiment is T1, hNPFF1 (Homo sapiens, UniProt Q9GZQ6).
T1 construct: The cDNA encoding the full-length human NPFFR1 and human NPFFR2; expressed in transfected cells
In words: Receptor binding assay with [3H]-FFRFamide on CHO cell membranes expressing SF-hNPFFR1. The note with it: [3H]-FFRF-NH2 radioligand, mean of at least two experiments; for Ki: read-out: Ki NPFF1. An excerpt:
(§1) The cDNA encoding the full-length human NPFFR1 and human NPFFR2 were subcloned into the pcDNA3 expression vector (Invitrogen, Cergy Pontoise, France) using standard molecular biology methods. A sequence encoding a signal sequence and a Flag epitope was fused to the 5' coding sequence of both hNPFFR1 and hNPFFR2 cDNA according to (Guan et al., 1992) resulting in a SF-hNPFFR1 and SF-hNPFFR2 constructs. These contructs were stably transfected into CHO cells.
(§2) Membranes from CHO cells stably expressing SF-hNPFFR1 or SF-hNPFFR2 were prepared as described (Becker et al., 1999). SF-hNPFFR1 or SF-hNPFFR2 membranes (10µg) were incubated for 30 min at 25 °C in a final volume of 0.5 ml containing 50 mM HEPES pH 7.4, 1 mM CaCl2, 1 mM MgCl2, 0.1% bovine serum albumin, 10 nM and 3 nM [^3H]-FFRFamide (CEA, Paris; specific activity, 13,6 Ci/mmol) for […], respectively and the ligands to be tested. Non-specific binding was determined in presence of 1 µM neuropeptide FF for SF-hNPFFR2 and 1 µM neuropeptide VF for SF -hNPFFR1. Typical total and nonspecific binding were 1200 and 200 dpm, respectively for SF-hNPFFR1 and SF-hNPFFR2. Incubation mixtures were rapidly filtered and washed with 50 mM HEPES pH 7.4, 1 mM CaCl2, 1 mM MgCl2, on 96 wells GF/B unifilter (Perkin Elmer). Unifilter plates where then dryied for 1hr at 65°C. Bound radioactivity was determined by scintillation counting with 30 µl of scintillation cocktail (O-scint, Perkin Elmer) per well on a Topcount scintillation apparatus (Perkin Elmer).

The target of a further experiment is T2, hNPFF2 (Homo sapiens, UniProt Q9Y5X5).
T2 construct: The cDNA encoding the full-length human NPFFR1 and human NPFFR2; expressed in transfected cells
T2 sequence (Q9Y5X5 whole entry): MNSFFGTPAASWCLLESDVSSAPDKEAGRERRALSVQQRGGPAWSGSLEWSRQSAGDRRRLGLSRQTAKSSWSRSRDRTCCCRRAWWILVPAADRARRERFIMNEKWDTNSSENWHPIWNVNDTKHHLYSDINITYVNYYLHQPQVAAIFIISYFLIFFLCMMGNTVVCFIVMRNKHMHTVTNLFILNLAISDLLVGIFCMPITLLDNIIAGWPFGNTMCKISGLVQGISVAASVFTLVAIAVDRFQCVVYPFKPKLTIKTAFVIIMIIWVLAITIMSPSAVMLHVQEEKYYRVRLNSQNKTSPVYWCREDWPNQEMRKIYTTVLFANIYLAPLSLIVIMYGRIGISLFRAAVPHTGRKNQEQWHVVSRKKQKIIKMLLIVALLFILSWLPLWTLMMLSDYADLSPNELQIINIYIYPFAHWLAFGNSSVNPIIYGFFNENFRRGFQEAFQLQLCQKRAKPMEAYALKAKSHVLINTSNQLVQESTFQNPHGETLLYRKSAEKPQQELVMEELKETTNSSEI
Briefly: Receptor binding assay with [3H]-FFRFamide on CHO cell membranes expressing SF-hNPFFR2. The note with it: [3H]-FFRF-NH2 radioligand, mean of at least two experiments; for Ki: read-out: Ki NPFF2.
Description: as §1, §2

Ki and inhibition data for 22 compounds are collected here from patent EP2669276A1 (Université de Strasbourg, priority 2012, dated 2013).

T1 sequence (Q9GZQ6 whole entry): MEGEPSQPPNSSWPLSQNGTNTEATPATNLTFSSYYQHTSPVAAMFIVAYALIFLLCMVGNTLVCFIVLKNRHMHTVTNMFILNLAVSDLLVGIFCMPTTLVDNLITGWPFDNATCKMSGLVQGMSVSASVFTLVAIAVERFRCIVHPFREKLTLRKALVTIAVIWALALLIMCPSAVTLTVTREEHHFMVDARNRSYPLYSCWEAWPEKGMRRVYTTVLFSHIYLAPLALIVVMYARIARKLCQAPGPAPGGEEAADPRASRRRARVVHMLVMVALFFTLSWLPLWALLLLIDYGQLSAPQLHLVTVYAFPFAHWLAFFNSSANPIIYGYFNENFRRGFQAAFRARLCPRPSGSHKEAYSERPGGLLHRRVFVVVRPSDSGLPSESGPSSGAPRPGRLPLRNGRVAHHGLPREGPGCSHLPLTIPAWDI

The Ki is a dissociation constant, usually derived from enzyme kinetics or from competition with a known ligand. The term inhibition denotes how much of the control response was suppressed. As for `CN(CCC[C@H](NC(=O)c1ccccc1-c1ccccc1)C(=O)NCCc1ccccc1)CCc1ccccc1` [Compound 23, (2S)-5-[methyl(2-phenylethyl)amino]-N-(2-phenylethyl)-2-[(2-phenylphenyl)formamido]pentanamide], the Ki at hNPFF1 worked out at 103 ± 15 nM. Also, at hNPFF2, testing at 0.5 µM gave an inhibition of 22 ± 3% and 5 µM produced 35 ± 8% inhibition.

For `O=C(N[C@@H](CCCN1CCc2ccccc2C1)C(=O)NCCc1ccccc1)c1ccccc1-c1ccccc1` [Compound 24, (2S)-N-(2-phenylethyl)-2-[(2-phenylphenyl)formamido]-5-(1,2,3,4-tetrahydroisoquinolin-2-yl)pentanamide], the Ki came out at 500 ± 10 nM at hNPFF1 and 320 ± 10 nM on hNPFF2.

For the compound `O=C(N[C@H](CCCN1CCc2ccccc2C1)C(=O)NCCc1ccccc1)c1ccccc1-c1ccccc1` [Compound 25, (2R)-N-(2-phenylethyl)-2-[(2-phenylphenyl)formamido]-5-(1,2,3,4-tetrahydroisoquinolin-2-yl)pentanamide], the inhibition at 0.5 µM at hNPFF1 was determined as 14 ± 1%; on hNPFF2, 0%. For the same compound, the inhibition at 5 µM on hNPFF1 turned out to be 51 ± 14%; at hNPFF2, 16 ± 5%.

For `O=C(N[C@H](CCCN1CCCCC1)C(=O)NCCc1ccccc1)c1ccccc1-c1ccccc1` [Compound 27, (2R)-N-(2-phenylethyl)-2-[(2-phenylphenyl)formamido]-5-(piperidin-1-yl)pentanamide], at hNPFF1, the Ki was found to be 179 ± 64 nM. Further, on hNPFF2, the inhibition at 0.5 µM was 0% and testing at 5 µM gave an inhibition of 13 ± 8%.

At hNPFF1, `O=C(N[C@@H](CCCN1CCCCC1)C(=O)NCCCc1ccccc1)c1ccccc1-c1ccccc1` [Compound 28, (2S)-2-[(2-phenylphenyl)formamido]-N-(3-phenylpropyl)-5-(piperidin-1-yl)pentanamide] came in with an inhibition at 0.5 µM of 16 ± 25% and an inhibition at 5 µM of 41 ± 2%. On hNPFF2, the inhibition at 0.5 µM came to 0% and the inhibition at 5 µM is 17%.

`COc1ccc(-c2ccccc2C(=O)N[C@@H](CCCN2CCCCC2)C(=O)NCCCc2ccccc2)cc1` [Compound 29, (2S)-2-{[2-(4-methoxyphenyl)phenyl]formamido}-N-(3-phenylpropyl)-5-(piperidin-1-yl)pentanamide]: the Ki on hNPFF1 came to 170 ± 70 nM. Besides, at hNPFF2, the inhibition at 0.5 µM was determined as 0% and testing at 5 µM gave an inhibition of 23 ± 5%.

For the compound `COc1ccc(-c2ccccc2C(=O)N[C@@H](CCCN2CCCCCC2)C(=O)NCCCc2ccccc2)cc1` [Compound 30, (2S)-5-(azepan-1-yl)-2-{[2-(4-methoxyphenyl)phenyl]formamido}-N-(3-phenylpropyl)pentanamide], the inhibition constant Ki at hNPFF1 is 64 ± 32 nM; on hNPFF2, 76 ± 18 nM.

For `O=C(N[C@@H](CCCN1CCC(c2ccccc2)CC1)C(=O)NCCc1ccccc1)c1ccccc1-c1ccccc1` [Compound 31, (2S)-N-(2-phenylethyl)-2-[(2-phenylphenyl)formamido]-5-(4-phenylpiperidin-1-yl)pentanamide], at hNPFF1, the Ki is 485 ± 35 nM. At hNPFF2, 0.5 µM produced 0% inhibition and the inhibition at 5 µM was determined as 45 ± 7%.

Consider `O=C(N[C@@H](CCCN1CCC(Cc2ccccc2)CC1)C(=O)NCCc1ccccc1)c1ccccc1-c1ccccc1` [Compound 32, (2S)-5-(4-benzylpiperidin-1-yl)-N-(2-phenylethyl)-2-[(2-phenylphenyl)formamido]pentanamide], for which the Ki amounted to 400 nM at hNPFF1 and 34 nM at hNPFF2.

Turning to `O=C(N[C@@H](CCCN1CCC(N2CCCCC2)CC1)C(=O)NCCc1ccccc1)c1ccccc1-c1ccccc1` [Compound 33, (2S)-N-(2-phenylethyl)-2-[(2-phenylphenyl)formamido]-5-[4-(piperidin-1-yl)piperidin-1-yl]pentanamide], the inhibitory constant (Ki) on hNPFF1 was 71 ± 11 nM. Moreover, at hNPFF2, the inhibition at 0.5 µM is 13 ± 11% and at 5 µM the inhibition was 55 ± 15%.

In the case of `CN1CCN(CCC[C@H](NC(=O)c2ccccc2-c2ccccc2)C(=O)NCCc2ccccc2)CC1` [Compound 34, (2S)-5-(4-methylpiperazin-1-yl)-N-(2-phenylethyl)-2-[(2-phenylphenyl)formamido]pentanamide], the Ki on hNPFF1 amounted to 232 ± 17 nM. At hNPFF2, this compound came in with an inhibition at 0.5 µM of 0% and an inhibition at 5 µM of 12 ± 5%.

Regarding `CC(=O)N1CCN(CCC[C@H](NC(=O)c2ccccc2-c2ccccc2)C(=O)NCCc2ccccc2)CC1` [Compound 35, (2S)-5-(4-acetylpiperazin-1-yl)-N-(2-phenylethyl)-2-[(2-phenylphenyl)formamido]pentanamide], at hNPFF1, the Ki amounted to 319 ± 13 nM. In addition, at hNPFF2, 0.5 µM produced 0% inhibition and 5 µM produced 0% inhibition.

In the case of `O=C(N[C@@H](CCCN1CCOCC1)C(=O)NCCc1ccccc1)c1ccccc1-c1ccccc1` [Compound 36, (2S)-5-(morpholin-4-yl)-N-(2-phenylethyl)-2-[(2-phenylphenyl)formamido]pentanamide], the inhibition at 0.5 µM on hNPFF1 turned out to be 10 ± 3%; at hNPFF2 it was 2%. In addition, the inhibition at 5 µM was found to be 25 ± 10% on hNPFF1 and 25 ± 2% at hNPFF2.

At hNPFF1, `O=C(N[C@@H](CCCN1CCC(N2C(=O)Cc3ccccc32)CC1)C(=O)NCCc1ccccc1)c1ccccc1-c1ccccc1` [Compound 37, (2S)-5-[4-(2-oxo-2,3-dihydro-1H-indol-1-yl)piperidin-1-yl]-N-(2-phenylethyl)-2-[(2-phenylphenyl)formamido]pentanamide] yielded an inhibition at 0.5 µM of 21 ± 6% and an inhibition at 5 µM of 42 ± 3%. Further, at hNPFF2, testing at 0.5 µM gave an inhibition of 0% and the inhibition at 5 µM worked out at 45%.

In the case of `CN(CCC[C@H](NC(=O)c1ccccc1-c1ccccc1)C(=O)NCCc1ccccc1)C1CCN(Cc2ccccc2)CC1` [Compound 38, (2S)-5-[(1-benzylpiperidin-4-yl)(methyl)amino]-N-(2-phenylethyl)-2-[(2-phenylphenyl)formamido]pentanamide], the Ki on hNPFF1 was 85 ± 20 nM; at hNPFF2 it was 40 ± 23 nM.

With `O=C(N[C@@H](CCCN1CCN(C(=O)c2ccccc2)CC1)C(=O)NCCc1ccccc1)c1ccccc1-c1ccccc1` [Compound 39, (2S)-5-(4-benzoylpiperazin-1-yl)-N-(2-phenylethyl)-2-[(2-phenylphenyl)formamido]pentanamide], the Ki on hNPFF1 was 187 ± 9 nM. On hNPFF2, this compound registered an inhibition at 0.5 µM of 0% and an inhibition at 5 µM of 17%.

Consider `O=C(N[C@@H](CCCN1CCC(Cc2ccccc2)CC1)C(=O)NCCc1ccccc1)c1ccccc1` [Compound 40, (2S)-5-(4-benzylpiperidin-1-yl)-N-(2-phenylethyl)-2-(phenylformamido)pentanamide], for which, on hNPFF1, the inhibition at 0.5 µM worked out at 19 ± 3% and the inhibition at 5 µM was determined as 32 ± 1%. At hNPFF2, this compound yielded an inhibition at 0.5 µM of 5 ± 3% and an inhibition at 5 µM of 19 ± 1%.

On hNPFF1, `O=C(N[C@@H](CCCN1CCC(Cc2ccccc2)CC1)C(=O)NCCc1ccccc1)c1ccccc1Cl` [Compound 41, (2S)-5-(4-benzylpiperidin-1-yl)-2-[(2-chlorophenyl)formamido]-N-(2-phenylethyl)pentanamide] yielded an inhibition at 0.5 µM of 0% and an inhibition at 5 µM of 54 ± 3%. At hNPFF2, this compound displayed an inhibition at 0.5 µM of 0% and an inhibition at 5 µM of 41 ± 3%.

Consider `O=C(N[C@@H](CCCN1CCC(Cc2ccccc2)CC1)C(=O)NCCc1ccccc1)c1ccc2ccccc2n1` [Compound 42, (2S)-5-(4-benzylpiperidin-1-yl)-N-(2-phenylethyl)-2-(quinolin-2-ylformamido)pentanamide], for which, at hNPFF1, the inhibition at 0.5 µM was determined as 11 ± 15% and the inhibition at 5 µM was 72 ± 11%. For the same compound, on hNPFF2, the inhibition at 0.5 µM came out at 4 ± 10% and the inhibition at 5 µM was determined as 47%.

In the case of `O=C(N[C@@H](CCCN1CCC(Cc2ccccc2)CC1)C(=O)NCCc1ccccc1)c1cccc(Cl)c1` [Compound 43, (2S)-5-(4-benzylpiperidin-1-yl)-2-[(3-chlorophenyl)formamido]-N-(2-phenylethyl)pentanamide], the Ki at hNPFF1 is 441 ± 80 nM; on hNPFF2, 147 ± 2 nM.

In the case of `O=C(NCCc1ccccc1)[C@H](CCCN1CCC(Cc2ccccc2)CC1)NC(=O)C12CC3CC(CC(C3)C1)C2` [Compound 44, (2S)-2-(adamantan-1-ylformamido)-5-(4-benzylpiperidin-1-yl)-N-(2-phenylethyl)pentanamide], the results for the Ki at hNPFF1 and at hNPFF2 were 603 ± 139 nM and 188 ± 6 nM, respectively.

For the compound `O=C(C=C(c1ccccc1)c1ccccc1)N[C@@H](CCCN1CCC(Cc2ccccc2)CC1)C(=O)NCCc1ccccc1` [Compound 45, (2S)-5-(4-benzylpiperidin-1-yl)-2-(3,3-diphenylprop-2-enamido)-N-(2-phenylethyl)pentanamide], on hNPFF1, the inhibition at 0.5 µM turned out to be 10 ± 18% and the inhibition at 5 µM came out at 12 ± 2%. For the same compound, on hNPFF2, the inhibition at 0.5 µM came to 23 ± 25% and at 5 µM the inhibition was 25 ± 19%.
